Converted amounts (≈) assume the structure as drawn.
How the values were obtained:
Settings in all cases: duplicate experiments
MRSA USA300 = assay type: cell-based, Staphylococcus aureus
Method: (§1) Determining the MIC value is a standard technique well known to the skilled person, in particular the MIC value can be measured using method M07-A9 (CLSI standard, January 2012, Vol. 32, No. 2, “Methods for Dilution Antimicrobial Susceptibility Tests for Bacteria That Grow Aerobically”).
(§2) Different microorganisms (from glycerol stock) were plated out on blood agar and incubated at 37° C. for 24 hours. A colony was selected and 2×5 mL of TSB was inoculated. The samples and a sterile control were cultured for 16-20 hours at 37° C. Comparative compound B is nisin acting as a control. Comparative compound C is vancomycin, also acting as a control. Comparative compounds A, D and E are also control compounds not part of the present invention.
(§3) The overnight cultures were diluted to 0.5×10^6 CFU in TSB. 50 μL of the bacterial solution was added to each well and the plates were sealed with an adhesive membrane and incubated at 37° C. for 16 hours. The next day, the plates were visually inspected for bacterial growth.

VRE 155 = assay type: cell-based
Method: as §1, §2, §3

E. coli = system: E. coli
Method: as §1
as §2, with “Comparative compound C is vancomycin, also acting as a control.” left out
as §3

B. subtilis = system: B. subtilis
Method: as §1
as §2, with “Comparative compound C is vancomycin, also acting as a control.” left out
as §3

S. aureus = system: S. aureus
Method: as §1
as §2, with “Comparative compound C is vancomycin, also acting as a control.” left out
as §3

Compound	MIC values MRSA USA300 (MRSA USA300) [µg/mL]	MIC values VRE 155 (VRE 155) [µg/mL]	MIC values E. coli (E. coli) [µg/mL]	MIC values B. subtilis (B. subtilis) [µg/mL]	MIC values S. aureus (S. aureus) [µg/mL]
C=C1NC(=O)[C@H]([C@@H](C)CC)NC(=O)[C@H](NC(=O)C(=CC)NC(=O)[C@@H](N)[C@@H](C)CC)CSC[C@@H](C(=O)N[C@H]2C(=O)N3CCC[C@H]3C(=O)NCC(=O)N[C@H](C(=O)N[C@@H](CCCCN)C(=O)NCCCCCCCCCCCC)CS[C@H]2C)NC(=O)[C@H](CC(C)C)NC1=O [(8)]	4 (≈ 3.04 µM)	2 (≈ 1.52 µM)	>64	4 (≈ 3.04 µM)	4 to 8
C=C1NC(=O)[C@H]([C@@H](C)CC)NC(=O)[C@H](NC(=O)C(=CC)NC(=O)[C@@H](NC(=O)CCN)[C@@H](C)CC)CSC[C@@H](C(=O)N[C@H]2C(=O)N3CCC[C@H]3C(=O)NCC(=O)N[C@H](C(=O)N[C@@H](CCCCNC(=O)CCN)C(=O)NCCCCCCCCCCCC)CS[C@H]2C)NC(=O)[C@H](CC(C)C)NC1=O [(22)]	16 (≈ 11 µM)	8 (≈ 5.48 µM)	–	–	–
C=C1NC(=O)[C@H]([C@@H](C)CC)NC(=O)[C@H](NC(=O)C(=CC)NC(=O)[C@@H](N)[C@@H](C)CC)CSC[C@@H](C(=O)N[C@H]2C(=O)N3CCC[C@H]3C(=O)NCC(=O)N[C@H](C(=O)N[C@@H](CCCCN)C(=O)N[C@@H](Cc3ccc(O)cc3)C(=O)NCCCCCCCCCC)CS[C@H]2C)NC(=O)[C@H](CC(C)C)NC1=O [(18)]	8 (≈ 5.51 µM)	2 (≈ 1.38 µM)	>64	4 (≈ 2.75 µM)	4 to 8
C=C1NC(=O)[C@H]([C@@H](C)CC)NC(=O)[C@H](NC(=O)C(=CC)NC(=O)[C@@H](N)[C@@H](C)CC)CSC[C@@H](C(=O)N[C@H]2C(=O)N3CCC[C@H]3C(=O)NCC(=O)N[C@H](C(=O)N[C@@H](CCCCN)C(=O)NCCCCCCCCC)CS[C@H]2C)NC(=O)[C@H](CC(C)C)NC1=O [(5)]	32 (≈ 25.1 µM)	8 to 16	64 (≈ 50.2 µM)	8 (≈ 6.27 µM)	16 (≈ 12.5 µM)
C=C1NC(=O)[C@H]([C@@H](C)CC)NC(=O)[C@H](NC(=O)C(=CC)NC(=O)[C@@H](N)[C@@H](C)CC)CSC[C@@H](C(=O)N[C@H]2C(=O)N3CCC[C@H]3C(=O)NCC(=O)N[C@H](C(=O)N[C@@H](CCCCN)C(=O)N[C@@H](Cc3c[nH]cn3)C(=O)NCCCCCCCCCC)CS[C@H]2C)NC(=O)[C@H](CC(C)C)NC1=O [(17)]	8 (≈ 5.61 µM)	4 (≈ 2.8 µM)	–	–	–
C=C1NC(=O)[C@H]([C@@H](C)CC)NC(=O)[C@H](NC(=O)C(=CC)NC(=O)[C@@H](N)[C@@H](C)CC)CSC[C@@H](C(=O)N[C@H]2C(=O)N3CCC[C@H]3C(=O)NCC(=O)N[C@H](C(=O)N[C@@H](CCCCN)C(=O)NC)CS[C@H]2C)NC(=O)[C@H](CC(C)C)NC1=O [D, reference compound]	–	–	>128	>128	>128
C=C1NC(=O)[C@H]([C@@H](C)CC)NC(=O)[C@H](NC(=O)C(=CC)NC(=O)[C@@H](N)[C@@H](C)CC)CSC[C@@H](C(=O)N[C@H]2C(=O)N3CCC[C@H]3C(=O)NCC(=O)N[C@H](C(=O)N[C@@H](CCCCN)C(=O)NCCCCCCCCCCCCCCC)CS[C@H]2C)NC(=O)[C@H](CC(C)C)NC1=O [(11)]	64 (≈ 47.1 µM)	8 (≈ 5.88 µM)	>64	8 (≈ 5.88 µM)	32 (≈ 23.5 µM)
C=C1NC(=O)[C@H]([C@@H](C)CC)NC(=O)[C@H](NC(=O)C(=CC)NC(=O)[C@@H](N)[C@@H](C)CC)CSC[C@@H](C(=O)N[C@H]2C(=O)N3CCC[C@H]3C(=O)NCC(=O)N[C@H](C(=O)N[C@@H](CCCCNC(=O)CCCCCCCC)C(=O)NC)CS[C@H]2C)NC(=O)[C@H](CC(C)C)NC1=O [(19)]	32 (≈ 24.5 µM)	8 (≈ 6.14 µM)	–	–	–
C=C1NC(=O)[C@H]([C@@H](C)CC)NC(=O)[C@H](NC(=O)C(=CC)NC(=O)[C@@H](N)[C@@H](C)CC)CSC[C@@H](C(=O)N[C@H]2C(=O)N3CCC[C@H]3C(=O)NCC(=O)N[C@H](C(=O)N[C@@H](CCCCN)C(=O)N[C@@H](Cc3ccccc3)C(=O)NCCCCCCCCCC)CS[C@H]2C)NC(=O)[C@H](CC(C)C)NC1=O [(16)]	8 (≈ 5.57 µM)	2 (≈ 1.39 µM)	>64	4 (≈ 2.78 µM)	8 (≈ 5.57 µM)
C=C1NC(=O)[C@H]([C@@H](C)CC)NC(=O)[C@H](NC(=O)C(=CC)NC(=O)[C@@H](N)[C@@H](C)CC)CSC[C@@H](C(=O)N[C@H]2C(=O)N3CCC[C@H]3C(=O)NCC(=O)N[C@H](C(=O)N[C@@H](CCCCN)C(=O)NCCCCCCCC)CS[C@H]2C)NC(=O)[C@H](CC(C)C)NC1=O [(4)]	64 (≈ 50.7 µM)	16 (≈ 12.7 µM)	–	–	–
C=C1NC(=O)[C@H]([C@@H](C)CC)NC(=O)[C@H](NC(=O)C(=CC)NC(=O)[C@@H](N)[C@@H](C)CC)CSC[C@@H](C(=O)N[C@H]2C(=O)N3CCC[C@H]3C(=O)NCC(=O)N[C@H](C(=O)N[C@@H](CCCCN)C(=O)NCCCN=[N+]=[N-])CS[C@H]2C)NC(=O)[C@H](CC(C)C)NC1=O [E, Nisin [1-12]-azide, reference compound]	–	–	>128	>128	>128
C=C1NC(=O)[C@H]([C@@H](C)CC)NC(=O)[C@H](NC(=O)C(=CC)NC(=O)[C@@H](N)[C@@H](C)CC)CSC[C@@H](C(=O)N[C@H]2C(=O)N3CCC[C@H]3C(=O)NCC(=O)N[C@H](C(=O)N[C@@H](CCCCN)C(=O)NCCC[N+](C)(C)CCCCCCCCCC)CS[C@H]2C)NC(=O)[C@H](CC(C)C)NC1=O [(14)]	8	4	>64	4	4
C=C1NC(=O)[C@H]([C@@H](C)CC)NC(=O)[C@H](NC(=O)C(=CC)NC(=O)[C@@H](N)[C@@H](C)CC)CSC[C@@H](C(=O)N[C@H]2C(=O)N3CCC[C@H]3C(=O)NCC(=O)N[C@H](C(=O)N[C@@H](CCCCNC(=O)CCN)C(=O)NCCCCCCCCCCCC)CS[C@H]2C)NC(=O)[C@H](CC(C)C)NC1=O [(21)]	8 (≈ 5.76 µM)	4 (≈ 2.88 µM)	–	–	–
C=C1NC(=O)[C@H]([C@@H](C)CC)NC(=O)[C@H](NC(=O)C(=CC)NC(=O)[C@@H](N)[C@@H](C)CC)CSC[C@@H](C(=O)N[C@H]2C(=O)N3CCC[C@H]3C(=O)NCC(=O)N[C@H](C(=O)N[C@@H](CCCCN)C(=O)N[C@@H](Cc3c[nH]c4ccccc34)C(=O)NCCCCCCCCCC)CS[C@H]2C)NC(=O)[C@H](CC(C)C)NC1=O [(15)]	8 (≈ 5.42 µM)	2 (≈ 1.36 µM)	>64	4 (≈ 2.71 µM)	8 (≈ 5.42 µM)
C=C1NC(=O)[C@H]([C@@H](C)CC)NC(=O)[C@H](NC(=O)C(=CC)NC(=O)[C@@H](N)[C@@H](C)CC)CSC[C@@H](C(=O)N[C@H]2C(=O)N3CCC[C@H]3C(=O)NCC(=O)N[C@H](C(=O)N[C@@H](CCCCN)C(=O)NCc3ccc(-c4ccc(Cl)cc4)cc3)CS[C@H]2C)NC(=O)[C@H](CC(C)C)NC1=O [(13)]	8 (≈ 5.93 µM)	4 (≈ 2.96 µM)	–	2 to 4	–
